EPA's ToxRefDB 2

Key:
rat [1] = settings: Prenatal developmental toxicity study, sprague dawley, Oral, Gavage/Intubation, dose end: 17 GD
rat [2] = settings: Fertility (Segment I), sprague dawley, Oral, Gavage/Intubation, dose end: 7 GD
rat [3] = settings: Sub-acute repeat dose toxicity, sprague dawley, Oral, Gavage/Intubation, dose end: 4 week, group: systemic
rabbit [4] = settings: Prenatal developmental toxicity study, new zealand white, Oral, Gavage/Intubation, dose end: 19 GD
dog [5] = settings: Sub-acute repeat dose toxicity; beagle; Oral; Gavage/Intubation; dose end: 4 week; group: systemic; systemic / in life observation / clinical signs / abnormal feces
rat [6] = settings: Prenatal developmental toxicity study, sprague dawley, Oral, Gavage/Intubation, dose end: 17 GD; remark: listed apart in the source
rat [7] = settings: Developmental neurotoxicity study, long evans, Oral, Gavage/Intubation, dose end: 110 PND, group: cannot be grouped
rat [8] = settings: Subchronic oral toxicity in rodents, fischer, Water, dose end: 13 week, group: systemic
mouse [9] = settings: Carcinogenicity, cd1, Oral, [Not Specified], dose end: 24 month, group: systemic
rat [10] = settings: Combined chronic toxicity/carcinogenicity, fischer, Oral, Feed, dose end: 24 month, group: systemic
rat [11] = settings: Prenatal developmental toxicity study, sprague dawley, Oral, Gavage/Intubation, dose end: 15 GD
dog [12] = settings: Chronic toxicity; beagle; Oral; Feed; dose end: 12 month; group: systemic; systemic / pathology microscopic / kidney / adenoma
rat [13] = settings: Subchronic oral toxicity in rodents, sprague dawley, Feed, dose end: 3 month, group: systemic
dog [14] = settings: Chronic toxicity, beagle, Oral, Feed, dose end: 52 week, group: systemic
rat [15] = settings: Combined chronic toxicity/carcinogenicity, other, Oral, Feed, dose end: 24 month, group: systemic
rat [16] = settings: Multigenerational reproductive toxicity study, other, Oral, Feed, dose end: 2 generation
dog [17] = settings: Subchronic oral toxicity in nonrodent, beagle, Feed, dose end: 90 day, group: systemic, systemic / clinical chemistry / albumin / albumin + systemic / clinical chemistry / albumin-globulin ratio / albumin-globulin ratio + …
rat [18] = settings: Prenatal developmental toxicity study, sprague-dawley, Oral, Gavage/Intubation, dose end: 15 GD
rabbit [19] = settings: Prenatal developmental toxicity study, himalayan, Oral, Gavage/Intubation, dose end: 19 GD
mouse [20] = settings: Carcinogenicity, other, Oral, Feed, dose end: 18 month, group: systemic
[21] = group: developmental, developmental / developmental malformation / bone / branched + developmental / developmental malformation / bone / full supernumerary + …
[22] = group: developmental, developmental / developmental malformation / bone / short + developmental / developmental malformation / bone / unossified + developmental…
[23] = group: maternal, systemic / in life observation / body weight / body weight + systemic / in life observation / body weight / body weight gain + systemic / in…
[24] = group: maternal, systemic / in life observation / food consumption / food consumption
[25] = group: maternal, reproductive / reproductive performance / estrous cycle / corpora lutea + reproductive / reproductive performance / implantations / …
[26] = group: parental, systemic / in life observation / body weight / body weight gain + systemic / in life observation / food consumption / food consumption
[27] = systemic / clinical chemistry / cholesterol / cholesterol + systemic / pathology microscopic / kidney / karyomegaly + systemic / pathology …
[28] = systemic / pathology microscopic / kidney / karyomegaly + systemic / pathology microscopic / kidney / necrosis + systemic / pathology …
[29] = group: developmental, systemic / in life observation / body weight / fetal weight
[30] = group: maternal, systemic / in life observation / body weight / body weight gain + systemic / in life observation / clinical signs / defecation + systemic / …
[31] = group: developmental, developmental / developmental malformation / trunk / thoracogastroschisis + systemic / in life observation / body weight / fetal weight
[32] = group: maternal, reproductive / reproductive performance / postimplantation loss / postimplantation loss + systemic / in life observation / body weight / …
[33] = systemic / in life observation / body weight / body weight gain + systemic / in life observation / clinical signs / vaginal discharge + …
[34] = systemic / urinalysis / protein / protein + systemic / urinalysis / bilirubin / total bilirubin
[35] = systemic / urinalysis / protein / protein + systemic / urinalysis / bilirubin / total bilirubin + systemic / urinalysis / specific gravity/…
[36] = systemic / pathology gross / lung / nodule(s)
[37] = systemic / pathology microscopic / liver / hemangiosarcoma + systemic / pathology microscopic / lung / adenoma + systemic / pathology …
[38] = systemic / pathology microscopic / adrenal gland / pheochromocytoma benign + systemic / pathology microscopic / adrenal gland / …
[39] = group: developmental, developmental / developmental malformation / bone / absent
[40] = group: maternal, systemic / in life observation / clinical signs / defecation (diarrhea) + systemic / in life observation / clinical signs / soft stools
[41] = systemic / in life observation / body weight / body weight + systemic / in life observation / body weight / body weight gain
[42] = systemic / in life observation / body weight / body weight + systemic / in life observation / body weight / body weight gain + systemic / …
[43] = systemic / pathology gross / lung / foci + systemic / in life observation / body weight / body weight gain + systemic / pathology …
[44] = systemic / pathology microscopic / kidney / atrophy
[45] = systemic / pathology microscopic / kidney / atrophy + systemic / in life observation / body weight / body weight + systemic / in life …
[46] = group: offspring, systemic / in life observation / body weight / offspring (pup) weight + systemic / organ weight / spleen / absolute + systemic / organ …
[47] = group: parental, systemic / in life observation / body weight / body weight + systemic / in life observation / body weight / body weight gain + systemic / in…
[48] = group: developmental, developmental / developmental malformation / bone / unossified + developmental / developmental malformation / bone / [other]
[49] = group: developmental, developmental / developmental malformation / bone / unossified + developmental / developmental malformation / bone / [other] + developmental…
[50] = group: maternal, systemic / in life observation / body weight / body weight gain + systemic / in life observation / food consumption / food consumption
[51] = group: developmental, developmental / developmental malformation / heart / misshapen
[52] = group: maternal, systemic / in life observation / clinical signs / hemorrhagic perineal discharge + systemic / in life observation / mortality / mortality
[53] = group: maternal, systemic / in life observation / clinical signs / hemorrhagic perineal discharge + systemic / in life observation / mortality / mortality + …
[54] = systemic / in life observation / body weight / body weight + systemic / in life observation / body weight / body weight gain + systemic / in…

## Cc1nc(-c2ccccn2)ncc1C(=O)Nn1cc(C)c2cc(F)ccc21
Rat [1]; [21]
  LOAEL: > 110 mg/kg/day
  NOAEL: ≥ 110 mg/kg/day
Rat [1]; [22]
  LEL: 10 mg/kg/day
  NEL: < 10 mg/kg/day
Rat [1]; [23]
  LOAEL: 110 mg/kg/day
  NEL: 10 mg/kg/day
  NOAEL: 30 mg/kg/day
Rat [1]; [24]
  LEL: 30 mg/kg/day
Rat [2]; [25]
  LEL: 110 mg/kg/day
  LOAEL: > 110 mg/kg/day
  NEL: 30 mg/kg/day
  NOAEL: ≥ 110 mg/kg/day
Rat [2]; group: parental, systemic / in life observation / body weight / body weight gain
  LEL: 30 mg/kg/day
Rat [2]; [26]
  LOAEL: > 110 mg/kg/day
  NEL: 10 mg/kg/day
  NOAEL: ≥ 110 mg/kg/day
Rat [3]; [27]
  LOAEL: 110 mg/kg/day
  NOAEL: 30 mg/kg/day
Rat [3]; [28]
  LEL: 10 mg/kg/day
  NEL: < 10 mg/kg/day
Rabbit [4]; [29]
  LEL: 500 mg/kg/day
  LOAEL: > 2000 mg/kg/day
  NEL: < 500 mg/kg/day
  NOAEL: ≥ 2000 mg/kg/day
Rabbit [4]; [30]
  LEL: 500 mg/kg/day
  LOAEL: > 2000 mg/kg/day
  NEL: < 500 mg/kg/day
  NOAEL: ≥ 2000 mg/kg/day
Dog [5]
  LEL: 100 mg/kg/day
  LOAEL: 100 mg/kg/day
  NEL: 30 mg/kg/day
  NOAEL: 30 mg/kg/day
Rat [6]; [31]
  LOAEL: > 110 mg/kg/day
  NEL: 10 mg/kg/day
  NOAEL: ≥ 110 mg/kg/day
Rat [6]; [29]
  LEL: 30 mg/kg/day
Rat [6]; [32]
  LEL: 110 mg/kg/day
  LOAEL: > 110 mg/kg/day
  NEL: 30 mg/kg/day
  NOAEL: ≥ 110 mg/kg/day

## CCC[CH2][Sn]([CH2]CCC)([CH2]CCC)[O][Sn]([CH2]CCC)([CH2]CCC)[CH2]CCC [Bis(tributyltin)oxide]
Rat [7]; developmental / developmental malformation / mouth / jaw / cleft palate + developmental / offspring survival late / [other] / [other] + …
  NEL: 2.5 mg/kg/day
Rat [7]; [33]
  LOAEL: > 16 mg/kg/day
  NOAEL: ≥ 16 mg/kg/day
Rat [7]; systemic / in life observation / body weight / offspring (pup) weight
  LEL: 5 mg/kg/day

## CN(C)NC(=O)CCC(=O)O [Daminozide]
Rat [8]; [34]
  LEL: 2.01 mg/kg/day
  LOAEL: 2.01 mg/kg/day
Rat [8]; [35]
  NEL: 0.8 mg/kg/day
  NOAEL: 0.8 mg/kg/day
Mouse [9]; [36]
  LEL: 42 mg/kg/day
  NEL: < 42 mg/kg/day
Mouse [9]; [37]
  LOAEL: > 1410 mg/kg/day
  NOAEL: ≥ 1410 mg/kg/day
Rat [10]; [38]
  LOAEL: > 500 mg/kg/day
  NEL: 25 mg/kg/day
  NOAEL: ≥ 500 mg/kg/day
Rat [10]; systemic / pathology microscopic / adrenal gland / pheochromocytoma malignant
  LEL: 250 mg/kg/day
Rat [11]; [39]
  LEL: 1800 mg/kg/day
  LOAEL: 1800 mg/kg/day
  NEL: 390 mg/kg/day
  NOAEL: 390 mg/kg/day
Rat [11]; [40]
  LEL: 1800 mg/kg/day
  LOAEL: 1800 mg/kg/day
  NEL: 390 mg/kg/day
  NOAEL: 390 mg/kg/day
Dog [12]
  LEL: 188 mg/kg/day
  LOAEL: > 188 mg/kg/day
  NEL: 75 mg/kg/day
  NOAEL: ≥ 188 mg/kg/day

## COc1cc(OC)nc(NC(=O)[N-]S(=O)(=O)c2ncccc2OCC(F)(F)F)n1.[Na+] [Trifloxysulfuron-sodium]
Rat [13]; systemic / clinical chemistry / cytochrome p450, nos / cytochrome p450, nos
  LEL: 239 mg/kg/day
Rat [13]; [41]
  LOAEL: 1050 mg/kg/day
Rat [13]; [42]
  NEL: 65.7 mg/kg/day
  NOAEL: 507 mg/kg/day
Dog [14]; systemic / pathology gross / lung / foci
  LEL: 15 mg/kg/day
Dog [14]; [43]
  NEL: 6.51 mg/kg/day
  NOAEL: 51.1 mg/kg/day
Dog [14]; systemic / pathology gross / lung / foci + systemic / pathology microscopic / lung / thickened
  LOAEL: 123 mg/kg/day
Rat [15]; [44]
  LEL: 99.3 mg/kg/day
  LOAEL: 99.3 mg/kg/day
Rat [15]; [45]
  NEL: 23.7 mg/kg/day
  NOAEL: 23.7 mg/kg/day
Rat [16]; [46]
  LEL: 631 mg/kg/day
  LOAEL: 631 mg/kg/day
  NEL: 78.8 mg/kg/day
  NOAEL: 78.8 mg/kg/day
Rat [16]; [47]
  LEL: 631 mg/kg/day
  LOAEL: 631 mg/kg/day
  NEL: 78.8 mg/kg/day
  NOAEL: 78.8 mg/kg/day
Dog [17]
  LEL: 164 mg/kg/day
  LOAEL: 164 mg/kg/day
  NEL: 19.8 mg/kg/day
  NOAEL: 19.8 mg/kg/day
Rat [18]; [48]
  LEL: 30 mg/kg/day
  NEL: < 30 mg/kg/day
Rat [18]; [49]
  LOAEL: 1000 mg/kg/day
  NOAEL: 300 mg/kg/day
Rat [18]; [50]
  LOAEL: 1000 mg/kg/day
  NEL: 30 mg/kg/day
  NOAEL: 300 mg/kg/day
Rat [18]; [24]
  LEL: 300 mg/kg/day
Rabbit [19]; [51]
  LEL: 100 mg/kg/day
  LOAEL: 100 mg/kg/day
  NEL: 50 mg/kg/day
  NOAEL: 50 mg/kg/day
Rabbit [19]; [52]
  LEL: 250 mg/kg/day
  LOAEL: 250 mg/kg/day
Rabbit [19]; [53]
  NEL: 100 mg/kg/day
  NOAEL: 100 mg/kg/day
Mouse [20]; [41]
  LEL: 24.1 mg/kg/day
  LOAEL: 24.1 mg/kg/day
Mouse [20]; [54]
  NEL: 5.76 mg/kg/day
  NOAEL: 5.76 mg/kg/day
